# Data from US20140286868A1, “IMMORTALIZED HUMAN PROSTATE CELL LINES” (Tuskegee University, priority 2011, published 2014).
# Legend:
# RC-77T/E cells = assay: Androgen sensitivity: cell proliferation by MTT assay, RC-77T/E cells; format: cell-based, human; conditions: 4 days
# Description: (§1) Since androgen receptor expression was observed both cell lines, an experiment was conducted to determine the effects of androgen stimulation on the growth of RC-77N/E and RC-77T/E cells. Cells were grown in serum-free K-SFM at different doses of Methyltrienolone (R1881), a synthetic androgen, for 4 days.
# (§2) In this experiment, 2×10^4 cells per well of each line were grown in serum-free K-SFM with 0.1% BSA in the presence of 0, 0.1, 1.0, 10.0 and 100.0 nM for 4 days. K-SFM was supplemented with or without Methyltrienolone (R1881) (obtained from Perkin-Elmer, Waltham, Mass.), at concentrations of 0.1, 1, 10 and 100 nM, respectively. Cell proliferation was determined by MTT assay according to a procedure as generally described by Wells et al. (“Luteinizing hormone-releasing hormone agonist limits DU-145 prostate cancer growth by attenuating epidermal growth factor receptor signaling.” Clin. Cancer Res. 8: 1251-1257, 2002.).
# (§3) The results from this experiment are illustrated in the chart of FIG. 4, with percent growth being determined by the number of cell counts being expressed as the mean value of triplicate observation. […] Further, the RC-77T/E cells were found responsive to 0.1 nM R1881, while RC-77N/E cells were only responsive at the higher dosage of 1.0 nM.
# RC-77N/E cells = assay: Androgen sensitivity: cell proliferation by MTT assay, RC-77N/E cells; format: cell-based, human; conditions: 4 days
# Description: as §1, §2, §3
# [1] = 1.0 nM R1881, serum-free K-SFM with 0.1% BSA
# [2] = 100.0 nM R1881, serum-free K-SFM with 0.1% BSA
structure (smiles),measurement,setting,value
"C[C@]1(O)CC[C@H]2[C@@H]3CCC4=CC(=O)CCC4=C3C=C[C@@]21C [R1881, Methyltrienolone]",cell growth response to androgen stimulation,"RC-77T/E cells; 0.1 nM R1881, serum-free K-SFM with 0.1% BSA",responsive
same,cell growth,RC-77T/E cells; [1],Significant stimulation in cell growth
same,cell growth,RC-77T/E cells; [2],inhibition of cell growth
same,cell growth,RC-77N/E cells; [1],Significant stimulation in cell growth
same,cell growth,RC-77N/E cells; [2],inhibition of cell growth
